In article PMC10092094 (Chemmedchem, 2022):

Legend:
[1] = biological target: T1, OGG1 (Homo sapiens, UniProt O15527); test: Differential scanning fluorimetry; assay type: binding
[2] = biological target: T1, OGG1; test: biochemical
[3] = IC50 (CI95), biochemical inhibition, confidence interval 95 in parentheses

T1 sequence (O15527 whole entry): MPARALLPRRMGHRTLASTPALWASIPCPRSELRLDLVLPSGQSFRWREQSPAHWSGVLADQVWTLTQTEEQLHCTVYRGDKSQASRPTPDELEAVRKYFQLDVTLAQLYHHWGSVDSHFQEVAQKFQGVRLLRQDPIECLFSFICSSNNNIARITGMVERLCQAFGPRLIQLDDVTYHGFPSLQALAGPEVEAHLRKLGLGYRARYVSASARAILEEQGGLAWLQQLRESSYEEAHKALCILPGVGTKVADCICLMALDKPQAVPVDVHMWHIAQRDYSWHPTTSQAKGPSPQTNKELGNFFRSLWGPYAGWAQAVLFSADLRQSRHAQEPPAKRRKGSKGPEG

DSF stabilization (ΔT) [1] [K]	IC50 [2, 3] [nM]	IC50 ([2]; IC50, biochemical inhibition, single replicate) [nM]	Structure (SMILES)
4.2	190		O=C(Nc1ccc(Br)cc1)N1CCC(n2c(=O)[nH]c3c(Br)cccc32)CC1 [Compound 44, 4‐(4‐bromo‐2‐oxo‐2,3‐dihydro‐1H‐1,3‐benzodiazol‐1‐yl)‐N‐(4‐bromophenyl)piperidine‐1‐carboxamide]
5.1	2100		Cc1ccc(NC(=O)N2CCC(n3c(=O)[nH]c4c(Br)cccc43)CC2)cc1 [Compound 45, 4‐(4‐bromo‐2‐oxo‐2,3‐dihydro‐1H‐1,3‐benzodiazol‐1‐yl)‐N‐(4‐methylphenyl)piperidine‐1‐carboxamide]
0.0	46000		CC(C)(C)c1ccc(NC(=O)N2CCC(n3c(=O)[nH]c4c(Br)cccc43)CC2)cc1 [Compound 46, 4‐(4‐bromo‐2‐oxo‐2,3‐dihydro‐1H‐1,3‐benzodiazol‐1‐yl)‐N‐(4‐tert‐butylphenyl)piperidine‐1‐carboxamide]
4.1		3100	COc1ccc(NC(=O)N2CCC(n3c(=O)[nH]c4c(Br)cccc43)CC2)cc1 [Compound 47, 4‐(4‐bromo‐2‐oxo‐2,3‐dihydro‐1H‐1,3‐benzodiazol‐1‐yl)‐N‐(4‐methoxyphenyl)piperidine‐1‐carboxamide]
1.6	1600		O=C(Nc1ccc(C(F)(F)F)cc1)N1CCC(n2c(=O)[nH]c3c(Br)cccc32)CC1 [Compound 49, 4‐(4‐bromo‐2‐oxo‐2,3‐dihydro‐1H‐1,3‐benzodiazol‐1‐yl)‐N‐[4‐(trifluoromethyl)phenyl]piperidine‐1‐carboxamide]
3.1	440		O=C(Nc1ccc(Cl)c(Cl)c1)N1CCC(n2c(=O)[nH]c3c(Br)cccc32)CC1 [Compound 53, 4‐(4‐bromo‐2‐oxo‐2,3‐dihydro‐1H‐1,3‐benzodiazol‐1‐yl)‐N‐(3,4‐dichlorophenyl)piperidine‐1‐carboxamide]
1.9	300		COc1cc(NC(=O)N2CCC(n3c(=O)[nH]c4c(Br)cccc43)CC2)ccc1Cl [Compound 54, 4‐(4‐bromo‐2‐oxo‐2,3‐dihydro‐1H‐1,3‐benzodiazol‐1‐yl)‐N‐(4‐chloro‐3‐methoxyphenyl)piperidine‐1‐carboxamide]
1.8	200		COc1cc(NC(=O)N2CCC(n3c(=O)[nH]c4c(Br)cccc43)CC2)ccc1C [Compound 55, 4‐(4‐bromo‐2‐oxo‐2,3‐dihydro‐1H‐1,3‐benzodiazol‐1‐yl)‐N‐(3‐methoxy‐4‐methylphenyl)piperidine‐1‐carboxamide]
5.1	4400		COc1ccc(NC(=O)N2CCC(n3c(=O)[nH]c4c(Br)cccc43)CC2)cc1OC [Compound 56, 4‐(4‐bromo‐2‐oxo‐2,3‐dihydro‐1H‐1,3‐benzodiazol‐1‐yl)‐N‐(3,4‐dimethoxyphenyl)piperidine‐1‐carboxamide]
